The subject of the test is Huh7 psiCHECK-miR122 Renilla luciferase reporter, 48 h. Kind of test: suppression of miR-122 activity, Renilla luciferase sensor – cell-based, Huh7 psiCHECK-miR122, cherry-pick, dose response (AID 652053).

Here are results for 90 compounds from PubChem BioAssay AID652053 (Broad Institute, 2013).

With `CCCC#Cc1cnc2c(c1)C(=O)N([C@H](C)CO)C[C@H](C)[C@H](CN(C)Cc1ccccc1F)O2`, the AC40 was 13.1 µM.
In the case of `OC(c1ccc(F)cc1)c1ncc(-c2ccccc2F)[nH]1` (stereo not given) it was 5.16 µM.
With `C[C@H](CO)N1C[C@H](C)[C@@H](CN(C)Cc2ccc(C(=O)Nc3ccccc3N)cc2)Oc2c(NS(=O)(=O)c3ccccc3)cccc2C1=O`, the AC40 was 20.2 µM.
In the case of `Cc1ccc(NS(=O)(=O)c2cc(-c3cc(C)no3)ccc2C(C)C)nc1` it was 2.23 µM; in that of `CSc1nc(-c2ccc(C)cc2)[nH]c1S(=O)(=O)c1ccccc1`, 15.9 µM; in that of `COc1ccc(S(=O)(=O)Nc2cc3c4c(c2)CCC(=O)N4CCC3)cc1C`, 6.67 µM.
With `Fc1ccccc1Cn1cc(C(=S)N2CCOCC2)c2ccccc21`, the AC40 was 12.4 µM.
Turning to `COc1ccc(OC)c(S(=O)(=O)Nc2ccc3oc4c(c3c2)C(=O)CCC4)c1`, the AC40 is 17.7 µM.
Take `C[C@@H]1CN([C@H](C)CO)C(=O)c2cc(N(C)C)ccc2O[C@H]1CN(C)Cc1ccc(C(=O)Nc2ccccc2N)cc1`: the AC40 is 1.96 µM.
As for `C[C@@H]1CN([C@@H](C)CO)C(=O)c2cccc(NC(=O)C3CC3)c2O[C@@H]1CN(C)Cc1ccc(C(=O)Nc2ccccc2N)cc1`, the AC40 was 3.72 µM.
Take `CSc1ccc(S(=O)(=O)NC2CC3CCC2C3)cc1` (stereo not given): the AC40 is 5.6 µM.
For `CC1CCN(C(=O)CN(c2ccc3c(c2)OCCO3)S(=O)(=O)c2ccccc2)CC1`, the AC40 was 2.51 µM.
For the compound `COc1ccc(NC(=O)Nc2cccc3c2O[C@H](CN(C)Cc2ccc4c(c2)OCO4)[C@@H](C)CN([C@H](C)CO)C3=O)cc1`, the AC40 was 22.8 µM.
On to `COc1cccc(CN(C(=O)Cc2c[nH]c3ccccc23)C(C(=O)NC2CCCCC2)c2cccs2)c1` (stereo not given), for which the AC40 was 6.05 µM.
As to `COc1ccc(N(C(=O)c2ccco2)S(=O)(=O)c2cc(Cl)c(Cl)cc2Cl)cc1`, the AC40 is 12.4 µM.
Consider `CCOc1cc(C)c(S(=O)(=O)NC2CCCCC2)cc1C`, for which the AC40 is 1.49 µM.
With `COc1cc(C(CCN2CCOCC2)c2c(OC)cc(OC)c3c(-c4ccccc4)cc(=O)oc23)cc(OC)c1OC` (stereo not given), the AC40 is 1.2 µM.
As for `CC(=O)c1ccc(NS(=O)(=O)c2ccc3c(c2)N(C)CCO3)cc1`, the figure is 3.6 µM.
On to `CN(Cc1ccccc1)S(=O)(=O)c1ccc(NC(=S)NC(=O)C2CCCCC2)cc1`, for which the AC40 is 13.4 µM.
With `C[C@H]1CN([C@@H](C)CO)C(=O)c2cccc(NC(=O)Nc3ccccc3)c2O[C@@H]1CN(C)Cc1ccc(C(=O)Nc2ccccc2N)cc1`, the AC40 was 11.3 µM.
As for `C[C@@H]1CN([C@@H](C)CO)C(=O)c2cccc(N(C)C)c2O[C@@H]1CN(C)Cc1ccc(C(=O)Nc2ccccc2N)cc1`, the figure is 3.25 µM; as for `Cc1ccc(S(=O)(=O)Nc2ccc3ccccc3c2)cc1`, 7.08 µM; as for `COC(=O)c1cc(S(=O)(=O)Nc2cc(OC)cc(OC)c2)cn1C`, 2.37 µM.
`CCOc1ccc2cc(C3CC(c4ccco4)=NN3S(C)(=O)=O)c(=O)[nH]c2c1` (stereo not given): the AC40 is 7.29 µM.
As for `COc1ccc(C(C)(C)C)cc1NS(=O)(=O)c1cccc2cccnc12`, the AC40 is 2.14 µM.
Take `Cc1cc(S(=O)(=O)Nc2cccc(Cl)c2)c(C)s1`: the AC40 was 0.486 µM.
For `CCCn1c(NC(=O)c2cccc(C)c2C)nc2ccccc21`, the AC40 is 16.2 µM.
For `C[C@@H]1CN([C@H](C)CO)C(=O)c2cccc(NS(C)(=O)=O)c2O[C@@H]1CN(C)Cc1ccc(C(F)(F)F)cc1`, the AC40 is 12.5 µM.
For `OCC1OC(n2cnc3c(NCc4ccccc4O)ncnc32)C(O)C1O` (stereo not given), the AC40 was 3.86 µM.
For `COc1ccc(S(=O)(=O)Nc2ccc(F)cc2)c(C)c1C`, the AC40 was 0.922 µM.
On to `COc1ccc(NC(C)=O)cc1S(=O)(=O)Nc1ccc(S(=O)(=O)N2CCCCC2)cc1`, for which the AC40 is 2.62 µM.
With `COc1cc(C)c(Cl)c(C)c1S(=O)(=O)NCc1cccnc1`, the AC40 is 2.3 µM.
Regarding `COc1ccc(OC)c(S(=O)(=O)Nc2ccc(C(C)=O)cc2)c1`, the AC40 was 1.58 µM.
Take `N#Cc1ccc(NC(=S)N2CCC3CC2c2cc(-c4ccc5c(c4)OCO5)ccc23)cc1` (stereo not given): the AC40 is 0.31 µM.
For `O=C(Nc1ccc(S(=O)(=O)Nc2nccs2)cc1)c1cc(-c2ccccc2Cl)nc2ccccc12`, the AC40 was 2.48 µM.
As for `FC(F)Sc1ccc(NC(=S)NC2CCCCC2)cc1`, the figure is 4.16 µM.
As for `C/C(=N\NC(=O)c1ccccc1O)C1C(=O)c2ccccc2C1=O`, the AC40 was 18.1 µM.
With `Cc1ccc(C2CN(C)C3(C(=O)Nc4ccccc43)C23COc2ccccc2C3=O)cc1` (stereo not given), the AC40 was 1.08 µM.
Take `COc1cc(C)c(C(C)C)cc1S(=O)(=O)NC1CC(C)(C)NC(C)(C)C1`: the AC40 is 0.59 µM.
With `O=c1c2ccccc2nnn1CSc1nnc(C2COc3ccccc3O2)n1-c1ccccc1` (stereo not given), the AC40 was 19.2 µM.
With `O=S(=O)(Nc1ccc(S(=O)(=O)N2CCCC2)cc1)c1ccccc1Br`, the AC40 is 4.34 µM.
In the case of `CN1C(=O)c2cc(NC(=O)Cc3ccccc3)ccc2OC[C@@H]2O[C@@H](CC(=O)NCC3CC3)CC[C@@H]21` it was 0.732 µM; in that of `Nc1c(S(=O)(=O)c2cccs2)c2nc3ccccc3nc2n1Cc1ccccc1`, 1.86 µM.
Take `COc1ccc(NS(=O)(=O)c2cc(OC)ccc2OC)cc1`: the AC40 is 5.31 µM.
`COc1cc(C)c(C(C)C)cc1S(=O)(=O)n1cnc(C)c1`: the AC40 was 2.65 µM.
Turning to `O=C(Cc1ccccc1)N1C[C@H]2[C@@H](c3ccccc31)[C@@H](CO)N2C(=O)c1ccc(F)cc1`, the AC40 was 5.37 µM.
As to `COc1ccc(NC(=O)C2CCC2)cc1S(=O)(=O)Nc1cc(C)ccc1Br`, the AC40 is 0.985 µM.
In the case of `CCNc1ccc(S(=O)(=O)N(C)C)cc1NCC(=O)Nc1ccc(F)c(Cl)c1`, the AC40 is 1.45 µM.
For `CCc1ccc(-c2cc(C)no2)cc1S(=O)(=O)NCc1ccco1`, the AC40 was 1.61 µM.
For the compound `COc1ccc(NS(=O)(=O)c2c(C)cc(C)cc2C)cc1`, the AC40 is 4.53 µM.
On to `Cc1cccc(NS(=O)(=O)c2cc3c4c(c2)C(C)C(=O)N4CCC3)c1` (stereo not given), for which the AC40 is 1.93 µM.
`Nc1ncc(Br)cc1S(=O)(=O)NCCc1ccccc1`: the AC40 is 0.647 µM.
Turning to `CC(C)c1ccc(S(=O)(=O)Nc2ccc(-n3cnnn3)cc2)cc1`, the AC40 is 2.55 µM.
For `O=S(=O)(NCC1CCCO1)c1cccc(C(F)(F)F)c1` (stereo not given), the AC40 is 22.2 µM.
On to `COCCNC(=O)c1ccc(C)c(S(=O)(=O)Nc2ccc(C)cc2)c1`, for which the AC40 was 6.38 µM.
Regarding `COc1ccc(S(=O)(=O)Nc2ccc(-c3ccc4nnc(C)n4n3)cc2)c(OC)c1`, the AC40 was 4.03 µM.
Regarding `Cc1ccccc1C(=O)Oc1ccc(Br)cc1C(=S)N1CCCC1`, the AC40 was 13.3 µM.
On to `CCOc1cc(S(=O)(=O)NCCc2ccccc2C)c(OCC)cc1-n1cnnn1`, for which the AC40 is 2.52 µM.
`COc1ccc(Cl)cc1N(CC(=O)N1CCCC1)S(=O)(=O)c1ccc(C)cc1`: the AC40 is 2.49 µM.
For the compound `Cc1ccc(S(=O)(=O)Nc2ccc3nc(N)sc3c2)cc1`, the AC40 is 2 µM.
As for `O=C(c1ccc(F)cc1)N1C[C@@H]2[C@H](c3ccccc31)[C@H](CO)N2C(=O)c1ccc(F)cc1`, the figure is 2.35 µM; as for `COc1ccccc1CNC(=O)C[C@@H]1CC[C@H]2[C@H](COc3ccc(NC(C)=O)cc3C(=O)N2C)O1`, 22 µM; as for `Cc1ccc(C)c(S(=O)(=O)Nc2ccc(-n3cnnn3)cc2)c1`, below 0.26 µM.
Turning to `Cc1cc(C(=O)Nc2cccc3c2O[C@@H](CN(C)CC2CCCCC2)[C@@H](C)CN([C@H](C)CO)C3=O)n(C)n1`, the AC40 was 2.41 µM.
On to `O=C(CCc1ccc(S(=O)(=O)NC2CCCCC2)cc1)NCc1ccccc1`, for which the AC40 was 4.38 µM.
In the case of `COc1ccc(NS(=O)(=O)c2cc(NC(=O)c3cnccn3)ccc2N2CCCC2)cc1`, the AC40 was 3.27 µM.
As for `S=C(Nc1ccc(Cl)cc1Cl)NC1CCCCC1`, the AC40 is 3.4 µM.
As for `Cc1cc(C(=O)Nc2cccc3c2O[C@@H](CN(C)CC2CCCCC2)[C@@H](C)CN([C@@H](C)CO)C3=O)n(C)n1`, the AC40 was 5.85 µM.
Regarding `C[C@@H]1CN([C@H](C)CO)C(=O)c2cccc(NC(=O)NC3CCCCC3)c2O[C@H]1CN(C)Cc1ccc(Cl)c(Cl)c1`, the AC40 was 0.891 µM.
For `O=C(NCc1ccco1)c1ccc(Cl)c(S(=O)(=O)Nc2ccccc2)c1`, the AC40 is 4.59 µM.
Regarding `COc1ccc(S(=O)(=O)Nc2cc3c(C(C)=O)c(C)oc3c3ccccc23)cc1`, the AC40 was 14.9 µM.
`Cc1nc2ccc(S(=O)(=O)Nc3ccccc3C)cc2s1`: the AC40 was 22.2 µM.
Turning to `CCOc1ccc(S(=O)(=O)NCCN2CCOCC2)c2ccccc12`, the AC40 was 1.14 µM.
For `C[C@@H]1CN([C@H](C)CO)C(=O)Cc2cc(N(C)C)ccc2O[C@H]1CN(C)Cc1ccc(C(=O)Nc2ccccc2N)cc1`, the AC40 is 10.3 µM.
With `O=C(N/N=C/c1cccs1)C(O)c1ccccc1` (stereo not given), the AC40 was 15.2 µM.
As to `Cc1cccc(C(O)c2ncc(-c3ccccc3F)[nH]2)c1C` (stereo not given), the AC40 was 5.74 µM.
Consider `C[C@H](CO)N1C[C@H](C)[C@@H](CN(C)Cc2ccc3c(c2)OCO3)Oc2c(NC(=O)C3CCOCC3)cccc2C1=O`, for which the AC40 was 9.34 µM.
For `S=C(Nc1ccccc1Cl)NC1CCCCCC1`, the AC40 was 17.2 µM.
As for `Cc1ccc(NS(=O)(=O)c2cccc3nsnc23)cc1C`, the figure is 4.13 µM; as for `O=C(C1CCCCC1)N1C[C@H]2[C@@H](c3ccccc31)[C@@H](CO)N2C(=O)c1ccccc1`, 1.37 µM; as for `Cc1ccc(C(=O)Nc2ccccc2C(=O)O)cc1S(=O)(=O)Nc1ccccc1`, 2.74 µM.
As for `CC(NC(=O)CNC(=S)N(Cc1cccs1)C1CCCC1)c1ccccc1` (stereo not given), the figure is 1.47 µM; as for `Cc1cc(C)cc(Cn2c3ccc(NC(=S)NCc4ccccc4F)cc3c(=O)n2C)c1`, 4.19 µM.
In the case of `CN1CC(c2ccc(C#N)cc2)C2(COc3ccccc3C2=O)C12C(=O)Nc1ccccc12` (stereo not given) it was 3.69 µM.
Turning to `Cc1ccc(NS(=O)(=O)c2ccc3c(c2)NC(=O)CO3)cc1C`, the AC40 is 6.29 µM.
In the case of `CC(=O)c1cccc(NS(=O)(=O)c2ccc3c(c2)oc(=O)n3C)c1`, the AC40 was 7.31 µM.
On to `Cc1ccc(C2=NN3C(C(=O)c4ccccc4)Oc4ccccc4C3C2)cc1` (stereo not given), for which the AC40 was 4.05 µM.
In the case of `COc1ccc(NS(=O)(=O)c2cc(-c3cnc(C4CC4)o3)ccc2C)cc1` it was 5.35 µM.
With `O=C(NCc1ccccn1)c1cccc(NS(=O)(=O)c2cccc(F)c2)c1`, the AC40 is 5.83 µM.
Turning to `CN(C)S(=O)(=O)c1ccc(NS(=O)(=O)/C=C/c2ccccc2)cc1`, the AC40 was 2.27 µM.
